Experimental data as given in article PMC8538513, “Inhibition of Matrix Metalloproteinases and Cancer Cell Detachment by Ru(II) Polypyridyl Complexes Containing 4,7-Diphenyl-1,10-phenanthroline Ligands—New Candidates for Antimetastatic Agents” (Pharmaceuticals, 2021).

What was measured:
A549 cells [1] = test: Trypsin resistance assay (cell adherence); type: cell-based, human
Description: Cells susceptibility to detachment upon incubation with the studied compounds was evaluated by checking their resistance to trypsin treatment. Cells were seeded into 96-well plate with the density of 3 × 10^4 cells per cm^2 in complete medium and cultured for 24 h. Then, cells were incubated with various concentrations of the studied compounds for 24 h. Subsequently, the cells were washed and 30 µL trypsin solution (0.05%) was added to each well for 10 min incubation at 37 °C. Next, cells were washed with PBS and Alamar Blue assay was performed to quantify adherent cells. The received results were normalized with appropriate wells without the trypsin treatment to exclude the possible toxicity of the studied compounds and presented as a percentage of control (untreated) cells. Experiments were performed in triplicates and each experiment was repeated five times to obtain mean values and standard error of the mean.

MMP-2 = biological target: T1, MMP-2 (Homo sapiens, UniProt P08253); test: MMP-2 inhibition, fluorogenic substrate FS-6; type: biochemical; details: [FS-6] = 2.5 µM, [enzyme] = 0.5 nM, 0.1 M Tris, pH 7.4, 37 °C; n.i. = no inhibition in the studied range (>> 25 µM, for NAMI-A >> 600 µM)
T1 construct: purchased Sigma-Aldrich
T1 sequence (P08253 110-660): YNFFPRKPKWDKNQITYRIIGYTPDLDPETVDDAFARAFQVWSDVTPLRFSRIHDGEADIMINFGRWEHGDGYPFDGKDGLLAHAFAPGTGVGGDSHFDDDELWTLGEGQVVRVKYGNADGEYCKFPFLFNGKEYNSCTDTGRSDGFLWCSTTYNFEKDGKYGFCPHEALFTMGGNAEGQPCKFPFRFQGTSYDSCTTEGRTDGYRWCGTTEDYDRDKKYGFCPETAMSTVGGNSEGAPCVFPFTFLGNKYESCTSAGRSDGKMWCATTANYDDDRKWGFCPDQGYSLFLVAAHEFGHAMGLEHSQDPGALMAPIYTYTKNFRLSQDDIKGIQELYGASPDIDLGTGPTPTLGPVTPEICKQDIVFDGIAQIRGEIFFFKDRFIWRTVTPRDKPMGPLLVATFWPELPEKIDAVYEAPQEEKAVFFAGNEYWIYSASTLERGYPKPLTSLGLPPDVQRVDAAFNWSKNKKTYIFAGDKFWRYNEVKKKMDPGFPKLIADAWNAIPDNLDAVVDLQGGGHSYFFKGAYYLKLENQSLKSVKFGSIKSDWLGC
Description: (§1) MMP-9 and MMP-2 were activated at 4 °C using 1 mM APMA overnight before the experiments. MMP-2 and MMP-9 assays were performed in 0.1 M Tris/HCl (pH 7.4, 37 °C) enriched with 0.1 M NaCl, 10 mM CaCl2, 0.1 mM ZnCl2 and 0.05% Brij35. […] Kinetic fluorescence measurements were performed using a Perkin Elmer LS55 spectrofluorimeter (λex/λem = 325/400 nm). The obtained fluorescence intensities were corrected due to inner filter effect according to the following equation [31]: […] where Fobs denotes the measured fluorescence intensity, while Aλem and Aλex are the absorbance of sample at emission and excitation wavelengths.
(§2) The enzyme activity in the presence of inhibitors was expressed as a fraction of initial reaction rate (vi/v0 ratio, v0—initial reaction rate, vi—initial reaction rate in the presence of inhibitor). IC50 parameters were calculated from a dose-response plot of enzyme fractional activity as a function of inhibitor concentration, using the Hill equation (OriginPro2018). Experiments were repeated three times and results are presented as mean values and standard deviation of the mean.

A549 cells [2] = test: Cytotoxicity, MTT assay; type: cell-based, human
Description: In vitro studies were conducted using human lung adenocarcinoma A549 cell line. Cells were routinely cultured in Dulbecco’s Modified Eagle Medium (DMEM, Corning, Corning, NY, USA) supplemented with 10% fetal bovine serum (FBS, Eurx, Gdańsk, Poland) (v/v) and 1% penicillin-streptomycin (100 units/mL–100µg/mL, Corning) (v/v) and incubated at 37 °C in humidified atmosphere with 5% CO2 (v/v). The cytotoxicity of the Ru(II) complexes was evaluated using MTT assay (Sigma-Aldrich). Cells were seeded into 96-well plate with the density of 3 × 10^4 cells per cm^2 in complete medium and cultured for 24 h. Then medium was removed and various concentrations of the studied compounds in basic medium were added. The final DMSO concentration in cell culture was fixed at 0.1% (v/v). […] After the incubation, MTT was removed, and the formed violet formazan crystals were dissolved in the 100 µL of DMSO:methanol (1:1) mixture. […] Experiments were performed in triplicates and repeated three times.

MMP-9 [3] = biological target: T2, MMP-9 (Homo sapiens, UniProt P14780); test: MMP-9 inhibition, fluorogenic substrate FS-6; type: biochemical; details: [FS-6] = 2.5 µM, [enzyme] = 0.5 nM, 0.1 M Tris, pH 7.4, 37 °C, fluorescence assay; n.i. = no inhibition in the studied range (>> 25 µM, for NAMI-A >> 600 µM)
T2 construct: purchased Sigma-Aldrich
Description: as §1, §2

A549 cells [4] = test: Cellular uptake of ruthenium (ICP-MS); type: cell-based, human; details: 1 µM complex, 24 h
Description: For cellular uptake A549 cells were seeded in a 6-well plate with the density of 4 × 10^4 cells per cm^2 in complete medium and cultured for 24 h. […] Any dead cells were eliminated by washing cells’ monolayer with PBS. Subsequently, the incubated cells were washed, detached by trypsin treatment and counted. The cells were isolated by centrifugation and digested in concentrated nitric acid overnight at room temperature. The solutions were diluted with Millipore water to a final nitric acid concentration of 2%. The Ru content in the samples was measured by inductively coupled plasma mass spectrometry (ICP-MS) using NexION 2000C (Perkin Elmer). Experiments were repeated three times. Results were calculated as ruthenium concentration per cell and presented as mean values and standard deviation of mean. Similarly, the content of Ru ions was measured in subcellular fraction obtained as described in chapter 4.5.

A549 cells [5] = details: cited from earlier work
MMP-9 [6] = test: Western blot, expression of the active form of MMP-9; type: cell-based, human; details: A549 cells, 24 h, 100 µM, normalized to β-actin
Description: A549 cells were seeded in a 25 cm^2 flask with the density of 1.25 × 10^6 cells per flask in complete medium and cultured for 24 h. […] After the incubation, cells were washed with ice-cold PBS and lysed using RIPA buffer containing Halt proteases inhibitor cocktail (Thermo Fisher Scientific). Protein samples (the same concentration per lane) were separated on a 12% sodium dodecyl sulfate polyacrylamide gel. PageRuler™ Prestained Protein Ladder (Thermo Fisher Scientific) was used to determine approximate molecular weights of resolved proteins. Electrophoresis was performed through the stacking gel for 25 min at 60 V and resolving gel for 50 min at 170 V at room temperature using a PowerPac™ Basic Power Supply (Bio-Rad, Inc., Hercules, CA, USA). […] Reactive protein was detected after membrane was washed three times in TBST using GE Healthcare Amersham™ ECL Prime Western Blotting Detection Reagent (GE Healthcare Inc., Chicago, IL, USA). Only one protein was detected at a time, each membrane was stripped in 0.2 M NaOH over 20 min, washed three times in water and blocked again before proceeding with another primary antibody. Data were collected by ChemiDoc XRS+ Imaging System (Bio-Rad, Inc., Hercules, CA, USA) and analyzed with Image Lab v. […]

B16F10 melanoma cells = system: B16F10 melanoma cells; design: method as in PMID 16368900; details: 100 µM; cited from earlier work

T2 sequence (P14780 107-707 limits assumed): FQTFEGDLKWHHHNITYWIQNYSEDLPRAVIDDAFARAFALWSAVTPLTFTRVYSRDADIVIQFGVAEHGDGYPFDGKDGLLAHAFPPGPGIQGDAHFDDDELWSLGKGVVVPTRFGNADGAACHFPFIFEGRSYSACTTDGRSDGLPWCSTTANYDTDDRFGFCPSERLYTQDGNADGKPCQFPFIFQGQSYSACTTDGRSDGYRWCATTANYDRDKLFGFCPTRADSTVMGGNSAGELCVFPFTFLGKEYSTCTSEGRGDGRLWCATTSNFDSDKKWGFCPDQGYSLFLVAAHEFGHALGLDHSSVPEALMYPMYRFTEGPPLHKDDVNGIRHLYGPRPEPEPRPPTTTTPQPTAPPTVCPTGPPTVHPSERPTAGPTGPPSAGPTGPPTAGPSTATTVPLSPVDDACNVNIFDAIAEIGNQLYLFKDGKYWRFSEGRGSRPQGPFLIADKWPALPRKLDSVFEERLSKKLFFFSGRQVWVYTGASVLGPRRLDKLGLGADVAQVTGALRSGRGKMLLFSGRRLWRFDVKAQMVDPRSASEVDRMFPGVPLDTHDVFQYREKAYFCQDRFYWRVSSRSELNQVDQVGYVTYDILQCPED

## [Ru+2].c1ccc(-c2ccnc3c2ccc2c(-c4ccccc4)ccnc23)cc1.c1ccc(-c2ccnc3c2ccc2c(-c4ccccc4)ccnc23)cc1.c1ccc(-c2ccnc3c2ccc2c(-c4ccccc4)ccnc23)cc1 [[Ru(dip)3]^2+]
A549 cells [1]; 24 h, non-toxic concentrations, effect seen from 1 µM
  Effect on cell adhesion / cell detachment (in words): high activity in inhibiting of cell detachment
MMP-2
  IC50: 8.3 ± 1.1 µM
A549 cells [2]; 24 h incubation, MTT
  Cytotoxicity (IC50): most cytotoxic compound
MMP-9 [3]
  IC50: 4.1 ± 1.6 µM
A549 cells [4]
  Increase of ruthenium concentration in a cell (uptake): highest uptake by cells

## CNC(=O)[C@H](Cc1c[nH]c2ccccc12)NC(=O)[C@@H](CC(=O)NO)CC(C)C [GM6001]
A549 cells [1]; GM6001 1–8 µM
  Effect on cell adhesion properties (in words): no alteration in cell adhesion properties was observed
A549 cells [2]; 1–8 µM
  Toxicity at the concentration used: non-toxic concentration

## [Ru+2].c1ccc(-c2ccccn2)nc1.c1ccc(-c2ccnc3c2ccc2c(-c4ccccc4)ccnc23)cc1.c1ccc(-c2ccnc3c2ccc2c(-c4ccccc4)ccnc23)cc1 [[Ru(dip)2(bpy)]^2+]
MMP-2
  IC50: 22.5 ± 2 µM
MMP-9 [3]
  IC50: 6.2 ± 2.8 µM

## N.N.[Cl][Pt][Cl] [cisplatin]
A549 cells [5]
  IC50: 70 µM

## CS(C)=O.[Cl-].[Cl-].[Cl-].[Cl-].[Ru+3].c1c[nH+]c[nH]1.c1c[nH]cn1 [NAMI-A, trans-[tetrachlorido(1H-imidazole)(S-dimethylsulphoxide)ruthenate(III)]]
MMP-9 [6]
  Reduction of expression of active MMP-9: 43%
A549 cells [1]; NAMI-A 100 µM
  Cell adherence (adhesion strength) compared to control: ca. 250%
MMP-2
  IC50 for MMP-2: no inhibitory properties and n.i.
B16F10 melanoma cells
  Adhesion strength vs. control: up to 162 % vs. control
MMP-9 [3]
  IC50 for MMP-9: no inhibitory properties and n.i.
